According to US20240376138A1, “Crystal Forms, Preparation Method And Application Of Aryl Phosphine Oxide Compound” (Chengdu Di'Ao Jiuhong Pharmaceutical Factory, priority 2021, published 2024):
Marks after values point to notes of the source that are not given here.

Assays:
[1] = tested on: BaF3 EML-4-ALK-L1196M xenograft tumor; assay: Pharmacodynamic experiment in vivo, subcutaneous xenograft model; parameters: species or system BALB/c nude mouse
Procedure: The model used in this trial was an engineered BALB/c nude mouse subcutaneous xenograft model of BaF3 EML-4-ALK-L1196M cells. Suspension culture of engineered BaF3 cells were carried out in vitro. […] Cell passage was processed twice a week. When the number of cells reached the requirement, the cells were collected, counted, diluted into a tumor cell suspension with a concentration of 1×10^7/ml with PBS, and carried to the animal room in an ice box for direct injection and inoculation. A 1 mL syringe was used to take the above-mentioned prepared tumor cell suspension with a concentration of 1×10^7/ml, and the tumor cell suspension was injected subcutaneously into the left forelimb armpit of the dorsal side of the mouse, 0.25 mL for each inoculation site. When the average volume of tumors reached about 160 mm^3, the drug was administered for each group, 15 mice in the vehicle group and 10 mice in each of the other administration groups.
Mode and frequency of administration: oral gavage administration, the volume of administration was 10 mL/kg, and the model group was given an equal volume of vehicle. It was administered 1 time a day for 14 consecutive days.
The mental, active, eating and other general conditions of the mice were observed every day, and the body weight was measured 3 times a week, and the short diameter (a) and long diameter (b) of the tumor of each mouse were measured with vernier calipers 3 times a week, and the tumor volume was calculated according to the formula (a^2×b)/2. The relative tumor volume (RTV) was calculated from the measured calculated tumor volume, RTV=Vt/V0. Wherein V0 was the tumor volume at randomization (i.e., d0) and Vt was the tumor volume at each measurement (i.e., dn). The relative tumor proliferation rate of anti-tumor activity evaluation index was calculated according to the following formula: relative tumor proliferation rate T/C (%): […]
(Note: TRTV: RTV in the treatment group; CRTV: RTV in the model control group. According to the evaluation criteria for efficacy in the “Technical Guidelines for Non-clinical Research of Cytotoxic Antitumor Drugs” issued by the National Medical Products Administration of China, T/C %≤40% is effective).

[2] = Comparative experiment of hygroscopicity (Chinese Pharmacopoeia 2020); assay type: physicochemical; settings: dihydrate
Description: The description of hygroscopic characteristics and the definition of hygroscopic weight gain are as follows: • Deliquescence: absorbs sufficient amount of water to form a liquid; • Very hygroscopic: the weight gain by hygroscopy is not less than 15%; • Hygroscopic: the weight gain by hygroscopy is less than 15% but not less than 2%; • Slightly hygroscopic: the weight gain by hygroscopy is less than 2% but not less than 0.2%; and
Not or almost not hygroscopic: the weight gain by hygroscopy is less than 0.2% from hygroscopicity.

Solubility test = assay type: physicochemical; settings: Solution with pH = 6.8, 25° C.±2° C., dihydrate
[3] = Variable temperature XRPD of crystal form 1; assay type: physicochemical
Procedure: The crystalline form 1 was tested on a hot-stage XRPD detection instrument to test the XRPD patterns under different temperature conditions, as shown in FIG. 8.

[4] = Vacuum drying stability test; assay type: physicochemical
[5] = Stability test 1: open solvent atmosphere, XRPD; assay type: physicochemical; settings: room temperature
[6] = Stability test 2: different temperature and humidity conditions, XRPD; assay type: physicochemical
[7] = Stability test 3: long-term and accelerated conditions; assay type: physicochemical
[8] = High temperature and illumination stability test of crystal forms 1-3; assay type: physicochemical
Description: The stabilities of crystal form 2 and crystal form 3 under high temperature, illumination and long-term conditions were investigated.

[9] = 30 mg/kg oral gavage 1 time a day, Day 3
[10] = 30 mg/kg oral gavage 1 time a day, Day 5
[11] = 30 mg/kg oral gavage 1 time a day, Day 7
[12] = 30 mg/kg oral gavage 1 time a day, Day 10
[13] = 30 mg/kg oral gavage 1 time a day, Day 12
[14] = 30 mg/kg oral gavage 1 time a day, Day 14
[15] = 30 mg/kg oral gavage once a day, D14
[16] = 40 mg/kg oral gavage 1 time a day, Day 3
[17] = 40 mg/kg oral gavage 1 time a day, Day 5
[18] = 40 mg/kg oral gavage 1 time a day, Day 7
[19] = 40 mg/kg oral gavage 1 time a day, Day 10
[20] = 40 mg/kg oral gavage 1 time a day, Day 12
[21] = 40 mg/kg oral gavage 1 time a day, Day 14
[22] = 40 mg/kg oral gavage once a day, D14
[23] = 6 months under long-term and accelerated conditions
[24] = High temperature (50° C.), Day 10, dihydrate
[25] = High temperature (50° C.), Day 30, dihydrate
[26] = Illumination (illuminance: 5000Lx), Day 10, dihydrate
[27] = Illumination (illuminance: 5000Lx), Day 30, dihydrate

COc1cc(N2CCC(N3CCN(C)CC3)CC2)c(C)cc1Nc1ncc(Br)c(Nc2ccc(C)cc2P(C)(C)=O)n1 [Crystal form 1, (2-((5-bromo-2-((2-methoxy-5-methyl-4-(4-(4-methylpiperazin-1-yl)piperidin-1-yl)phenyl)amino)pyrimidin-4-yl)amino)-5-methylphenyl)dimethylphosphorus oxide dihydrate]
Tumor volume ([1]; 30 mg/kg oral gavage 1 time a day, Day 0): 160 mm^3
Relative tumor proliferation rate T/C [1, 9]: 28.53▴▴ %
Tumor volume [1, 9]: 102 mm^3
Relative tumor proliferation rate T/C [1, 10]: 16.41▴▴ %
Tumor volume [1, 10]: 89 mm^3
Relative tumor proliferation rate T/C [1, 11]: 8.23▴▴ %
Tumor volume [1, 11]: 75 mm^3
Relative tumor proliferation rate T/C [1, 12]: 6.61▴▴ %
Tumor volume [1, 12]: 91 mm^3
Relative tumor proliferation rate T/C [1, 13]: 6.34▴▴ %
Tumor volume [1, 13]: 109 mm^3
Relative tumor proliferation rate T/C [1, 14]: 4.85▴▴ %
Tumor volume [1, 14]: 101 mm^3
Tumor volume [1, 15]: 101 mm^3
relative tumor proliferation rate T/C % [1, 15]: 4.85%
Tumor volume ([1]; 40 mg/kg oral gavage 1 time a day, Day 0): 159 mm^3
Relative tumor proliferation rate T/C [1, 16]: 23.88▴▴ %
Tumor volume [1, 16]: 83 mm^3
Relative tumor proliferation rate T/C [1, 17]: 10.09▴▴ %
Tumor volume [1, 17]: 52 mm^3
Relative tumor proliferation rate T/C [1, 18]: 5.93▴▴ %
Tumor volume [1, 18]: 49 mm^3
Relative tumor proliferation rate T/C [1, 19]: 4.45▴▴ %
Tumor volume [1, 19]: 60 mm^3
Relative tumor proliferation rate T/C [1, 20]: 3.28▴▴ %
Tumor volume [1, 20]: 55 mm^3
Relative tumor proliferation rate T/C [1, 21]: 2.34▴▴ %
Tumor volume [1, 21]: 49 mm^3
Tumor volume [1, 22]: 49 mm^3
relative tumor proliferation rate T/C % [1, 22]: 2.34%
effect on the growth of BaF3 EML-4-ALK-L1196M xenograft tumor ([1]; oral gavage once a day for 14 days, crystal form 1 30 and 40 mg/kg, compound 1 of WO2021073498A1 30.2 and 40.2 mg/kg): significantly inhibit the growth
Hygroscopicity ([2]; class by weight gain after 24 h): Not or almost not hygroscopic (the weight gain by hygroscopy is less than 0.2% from hygroscopicity)
Weight gain % after 24 h ([2]; hygroscopicity test, 24 h): 0.16%
Solubility for 24 h (Solubility test): 3.26 mg/mL
crystal form on hot-stage XRPD ([3]; 50° C.): remained unchanged
crystal form on hot-stage XRPD ([3]; 80° C. and 120° C.): lost two moles of crystal water
crystal form after vacuum drying ([4]; vacuum dried at 35° C.): had not been transformed
moisture content after vacuum drying ([4]; vacuum drying at 35° C. for 24 h): 5.26%
Analysis of result (XRPD) Day 4 ([5]; Acetone atmosphere): Crystal form 1
Analysis of result (XRPD) Day 6 ([5]; Acetone atmosphere): Crystal form 1
Analysis of result (XRPD) Day 4 ([5]; Ethanol atmosphere): Crystal form 1
Analysis of result (XRPD) Day 6 ([5]; Ethanol atmosphere): Crystal form 1
Analysis of result (XRPD) Day 4 ([5]; Ethyl acetate atmosphere): Crystal form 1
Analysis of result (XRPD) Day 6 ([5]; Ethyl acetate atmosphere): Crystal form 1
Analysis of result (XRPD) Day 4 ([5]; Tetrahydrofuran atmosphere): Crystal form 1
Analysis of result (XRPD) Day 6 ([5]; Tetrahydrofuran atmosphere): Crystal form 1
Analysis of result of Day 4 (XRPD) ([6]; 25° C.-60% RH): Crystal form 1
Analysis of result of Day 6 (XRPD) ([6]; 25° C.-60% RH): Crystal form 1
Analysis of result of Day 11 (XRPD) ([6]; 25° C.-60% RH): Crystal form 1
Analysis of result of Day 4 (XRPD) ([6]; 40° C.-75% RH): Crystal form 1
Analysis of result of Day 6 (XRPD) ([6]; 40° C.-75% RH): Crystal form 1
Analysis of result of Day 11 (XRPD) ([6]; 40° C.-75% RH): Crystal form 1
Analysis of result of Day 4 (XRPD) ([6]; RT-12% RH): Crystal form 1
Analysis of result of Day 6 (XRPD) ([6]; RT-12% RH): Crystal form 1
Analysis of result of Day 11 (XRPD) ([6]; RT-12% RH): Crystal form 1
Analysis of result of Day 4 (XRPD) ([6]; RT-58% RH): Crystal form 1
Analysis of result of Day 6 (XRPD) ([6]; RT-58% RH): Crystal form 1
Analysis of result of Day 11 (XRPD) ([6]; RT-58% RH): Crystal form 1
Analysis of result of Day 4 (XRPD) ([6]; RT-97% RH): Crystal form 1
Analysis of result of Day 6 (XRPD) ([6]; RT-97% RH): Crystal form 1
Analysis of result of Day 11 (XRPD) ([6]; RT-97% RH): Crystal form 1
maximum single impurity [7, 23]: ≤ 0.07%
total impurities after 6 months of placement compared with Day 0 [7, 23]: had not increased
Traits ([7]; Acceleration (40° C. ± 2° C., 75% RH ± 10% RH), Day 0): off-white
Traits ([7]; Acceleration (40° C. ± 2° C., 75% RH ± 10% RH), Month 6): off-white
Crystal form (XRPD) ([7]; Acceleration (40° C. ± 2° C., 75% RH ± 10% RH, exposed to air and away from light), Day 0): form 1
Crystal form (XRPD) ([7]; Acceleration (40° C. ± 2° C., 75% RH ± 10% RH, exposed to air and away from light), Day 10): form 1
Crystal form (XRPD) ([7]; Acceleration (40° C. ± 2° C., 75% RH ± 10% RH, exposed to air and away from light), Month 6): form 1
Traits ([7]; Long-term (25° C. ± 2° C., 65% RH ± 10% RH), Day 0, dihydrate): off-white
Traits ([7]; Long-term (25° C. ± 2° C., 65% RH ± 10% RH), Month 6): off-white
Crystal form (XRPD) ([7]; Long-term (25° C. ± 2° C., 65% RH ± 10% RH, exposed to air and away from light), Day 0): form 1
Crystal form (XRPD) ([7]; Long-term (25° C. ± 2° C., 65% RH ± 10% RH, exposed to air and away from light), Day 10): form 1
Crystal form (XRPD) ([7]; Long-term (25° C. ± 2° C., 65% RH ± 10% RH, exposed to air and away from light), Month 6): form 1
Traits ([8]; Day 0, dihydrate): off-white
purity ([8]; Day 0, dihydrate): purity: 99.66%
total impurities ([8]; Day 0, dihydrate): impurities: 0.34%
the number of impurities above the reporting limit ([8]; Day 0, reporting limit per ICHQ3B): limit is 4 total
Traits [8, 24]: off-white
purity [8, 24]: purity: 99.65%;
the number of impurities above the reporting limit [8, 24]: limit is 5; total
total impurities [8, 24]: impurities: 0.35%
Traits [8, 25]: off-white
purity [8, 25]: purity: 99.53%;
the number of impurities above the reporting limit [8, 25]: limit is 6; total
total impurities [8, 25]: impurities: 0.47%
Traits ([8]; Illumination (illuminance: 5000Lx), Day 10 (Table 18-1), dihydrate): off-white
Traits [8, 26]: off-white
purity [8, 26]: purity: 99.65%;
the number of impurities above the reporting limit [8, 26]: limit is 5; total
total impurities [8, 26]: impurities: 0.35%
Traits [8, 27]: off-white
purity [8, 27]: purity: 99.60%;
the number of impurities above the reporting limit [8, 27]: limit is 6; total
total impurities [8, 27]: impurities: 0.40%
